Results taken from ChEMBL document CHEMBL1141483, “Design and synthesis of 1,3-diarylurea derivatives as selective cyclooxygenase (COX-2) inhibitors” (Bioorg Med Chem Lett, 2008).

Molecular target: T1, Prostaglandin G/H synthase 1 (Ovis aries, UniProt P05979)
T1 sequence (P05979 whole entry): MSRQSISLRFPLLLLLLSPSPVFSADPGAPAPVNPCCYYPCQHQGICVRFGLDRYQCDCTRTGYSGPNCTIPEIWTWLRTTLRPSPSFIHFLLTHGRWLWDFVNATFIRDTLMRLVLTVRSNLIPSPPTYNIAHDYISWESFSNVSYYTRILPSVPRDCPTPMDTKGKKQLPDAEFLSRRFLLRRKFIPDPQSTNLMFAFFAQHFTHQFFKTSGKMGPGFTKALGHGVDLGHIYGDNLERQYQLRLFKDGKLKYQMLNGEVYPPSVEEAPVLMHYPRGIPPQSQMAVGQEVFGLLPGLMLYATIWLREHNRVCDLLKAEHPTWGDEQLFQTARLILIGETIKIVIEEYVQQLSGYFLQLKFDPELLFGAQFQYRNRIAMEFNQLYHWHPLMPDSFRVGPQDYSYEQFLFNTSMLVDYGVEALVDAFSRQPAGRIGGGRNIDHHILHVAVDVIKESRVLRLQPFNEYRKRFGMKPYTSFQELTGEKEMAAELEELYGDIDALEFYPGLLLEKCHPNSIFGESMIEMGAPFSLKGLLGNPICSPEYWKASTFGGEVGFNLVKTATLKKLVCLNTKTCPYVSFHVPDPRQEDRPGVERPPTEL
Description: Inhibition of ovine COX1 by chemiluminescent assay

Compound | IC50
CS(=O)(=O)c1ccc(NC(=O)Nc2ccc(F)cc2)cc1 | 21.8 µM
CS(=O)(=O)c1ccc(NC(=O)Nc2ccc(Cl)cc2)cc1 | 21.5 µM
COc1ccc(NC(=O)Nc2ccc(S(C)(=O)=O)cc2)cc1 | 22.4 µM

Results, then the compound that gave them:

IC50 | Compound
9.2 µM | CS(=O)(=O)c1ccc(NC(=O)Nc2ccccc2)cc1
12.5 µM | Cc1ccc(NC(=O)Nc2ccc(S(C)(=O)=O)cc2)cc1
